Results taken from article PMC12564498, “Benzo[d]imidazole–Naphthalen-Arylmethanone Regioisomers as CB1 Ligands: Evaluation of Agonism via an Indirect Cytotoxicity-Based Approach” (International Journal of Molecular Sciences, 2025).
pIC50, pKi: −log10 of the molar value.

Target: T1, human cannabinoid CB1 receptor (Homo sapiens, UniProt P21554)
T1 construct: purchased Perkin Elmer Inc., Singapore Pte; Ltd. RBHCB1M400UA; host or cells: HEK293-EBNA cell membranes (overexpressing)
Assay: biochemical
Assay type: binding
Details: Cheng–Prusoff from IC50, [3H]CP-55940 0.5 nM, mean ± SEM n = 3; read-out: CB1 Ki

T1 sequence (P21554 whole entry): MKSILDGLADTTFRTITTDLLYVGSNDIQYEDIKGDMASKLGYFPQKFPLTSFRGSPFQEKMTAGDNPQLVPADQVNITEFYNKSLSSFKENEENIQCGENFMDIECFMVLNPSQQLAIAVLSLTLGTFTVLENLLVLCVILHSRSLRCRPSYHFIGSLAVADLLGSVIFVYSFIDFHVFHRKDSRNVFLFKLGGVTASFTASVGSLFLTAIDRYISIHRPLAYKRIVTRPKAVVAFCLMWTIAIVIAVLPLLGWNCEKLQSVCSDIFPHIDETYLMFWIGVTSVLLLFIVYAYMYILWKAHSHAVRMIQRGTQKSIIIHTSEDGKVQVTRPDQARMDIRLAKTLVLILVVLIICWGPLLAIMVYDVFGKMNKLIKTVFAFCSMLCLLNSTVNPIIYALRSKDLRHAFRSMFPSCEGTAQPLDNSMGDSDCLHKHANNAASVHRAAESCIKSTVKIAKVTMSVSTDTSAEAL

| SMILES | pKi |
| --- | --- |
| Cc1cc(-c2nc3cc(Cl)ccc3n2C(=O)c2cccc3ccccc23)no1 [Compound 4c] | < 5.00 |
| O=C(c1cccc2ccccc12)n1c(-c2cccnc2)nc2ccc(Cl)cc21 [4a′] | < 5.00 |
| Cc1cc(-c2nc3ccc(F)cc3n2C(=O)c2cccc3ccccc23)no1 [5c′, (6-fluoro-2-(5-methylisoxazol-3-yl)-1H-benzo[d]imidazol-1-yl)(naphthalen-1-yl)methanone] | < 5.00 |
| O=C(c1cccc2ccccc12)n1c(-c2cccnc2)nc2cc(F)ccc21 [Compound 5a] | < 5.00 |
| Cc1ccc(-c2nc3ccc(F)cc3n2C(=O)c2cccc3ccccc23)o1 [5e′, (6-fluoro-2-(5-methylfuran-2-yl)-1H-benzo[d]imidazol-1-yl)(naphthalen-1-yl)methanone] | < 5.00 |
| O=C(c1cccc2ccccc12)n1c(-c2ccco2)nc2cc(Cl)ccc21 [Compound 4f] | < 5.00 |
| Cc1cc(-c2nc3ccc(Cl)cc3n2C(=O)c2cccc3ccccc23)no1 [4c′] | < 5.00 |
| COc1cccc(-c2nc3cc(Cl)ccc3n2C(=O)c2cccc3ccccc23)c1 [Compound 4b] | < 5.00 |
| O=C(c1cccc2ccccc12)n1c(-c2ccon2)nc2ccc(F)cc21 [5d′, (6-fluoro-2-(isoxazol-3-yl)-1H-benzo[d]imidazol-1-yl)(naphthalen-1-yl)methanone] | < 5.00 |
| Cc1cc(-c2nc3cc(F)ccc3n2C(=O)c2cccc3ccccc23)no1 [Compound 5c, (5-fluoro-2-(5-methylisoxazol-3-yl)-1H-benzo[d]imidazol-1-yl)(naphthalen-1-yl)methanone] | < 5.00 |
| O=C(c1cccc2ccccc12)n1c(-c2cccnc2)nc2cc(Cl)ccc21 [Compound 4a] | < 5.00 |

Same assay, conditions: [3H]CP-55940 0.5 nM, hCB1 HEK293-EBNA membranes, mean ± SEM n = 3; read-out: CB1 IC50

| SMILES | pIC50 |
| --- | --- |
| Cc1cc(-c2nc3cc(Cl)ccc3n2C(=O)c2cccc3ccccc23)no1 [Compound 4c] | < 5.00 |
| O=C(c1cccc2ccccc12)n1c(-c2cccnc2)nc2ccc(Cl)cc21 [4a′] | < 5.00 |
| Cc1cc(-c2nc3ccc(F)cc3n2C(=O)c2cccc3ccccc23)no1 [5c′, (6-fluoro-2-(5-methylisoxazol-3-yl)-1H-benzo[d]imidazol-1-yl)(naphthalen-1-yl)methanone] | < 5.00 |
| O=C(c1cccc2ccccc12)n1c(-c2cccnc2)nc2cc(F)ccc21 [Compound 5a] | < 5.00 |
| Cc1ccc(-c2nc3ccc(F)cc3n2C(=O)c2cccc3ccccc23)o1 [5e′, (6-fluoro-2-(5-methylfuran-2-yl)-1H-benzo[d]imidazol-1-yl)(naphthalen-1-yl)methanone] | < 5.00 |
| O=C(c1cccc2ccccc12)n1c(-c2ccco2)nc2cc(Cl)ccc21 [Compound 4f] | < 5.00 |
| Cc1cc(-c2nc3ccc(Cl)cc3n2C(=O)c2cccc3ccccc23)no1 [4c′] | < 5.00 |
| COc1cccc(-c2nc3cc(Cl)ccc3n2C(=O)c2cccc3ccccc23)c1 [Compound 4b] | < 5.00 |
| O=C(c1cccc2ccccc12)n1c(-c2ccon2)nc2ccc(F)cc21 [5d′, (6-fluoro-2-(isoxazol-3-yl)-1H-benzo[d]imidazol-1-yl)(naphthalen-1-yl)methanone] | < 5.00 |
| Cc1cc(-c2nc3cc(F)ccc3n2C(=O)c2cccc3ccccc23)no1 [Compound 5c, (5-fluoro-2-(5-methylisoxazol-3-yl)-1H-benzo[d]imidazol-1-yl)(naphthalen-1-yl)methanone] | < 5.00 |
| O=C(c1cccc2ccccc12)n1c(-c2cccnc2)nc2cc(Cl)ccc21 [Compound 4a] | < 5.00 |

Same assay, conditions: displacement of [3H]CP-55940 at 10 μM compound; read-out: CB1 Max Tested µM (% Displacement)

| SMILES | inhibition at 10 µM |
| --- | --- |
| Cc1cc(-c2nc3cc(Cl)ccc3n2C(=O)c2cccc3ccccc23)no1 [Compound 4c] | 38% |
| O=C(c1cccc2ccccc12)n1c(-c2cccnc2)nc2ccc(Cl)cc21 [4a′] | 20% |
| Cc1cc(-c2nc3ccc(F)cc3n2C(=O)c2cccc3ccccc23)no1 [5c′, (6-fluoro-2-(5-methylisoxazol-3-yl)-1H-benzo[d]imidazol-1-yl)(naphthalen-1-yl)methanone] | 37% |
| O=C(c1cccc2ccccc12)n1c(-c2cccnc2)nc2cc(F)ccc21 [Compound 5a] | 41% |
| Cc1ccc(-c2nc3ccc(F)cc3n2C(=O)c2cccc3ccccc23)o1 [5e′, (6-fluoro-2-(5-methylfuran-2-yl)-1H-benzo[d]imidazol-1-yl)(naphthalen-1-yl)methanone] | 43% |
| O=C(c1cccc2ccccc12)n1c(-c2ccco2)nc2cc(Cl)ccc21 [Compound 4f] | > 50% |
| Cc1cc(-c2nc3ccc(Cl)cc3n2C(=O)c2cccc3ccccc23)no1 [4c′] | 44% |
| COc1cccc(-c2nc3cc(Cl)ccc3n2C(=O)c2cccc3ccccc23)c1 [Compound 4b] | 39% |
| O=C(c1cccc2ccccc12)n1c(-c2ccon2)nc2ccc(F)cc21 [5d′, (6-fluoro-2-(isoxazol-3-yl)-1H-benzo[d]imidazol-1-yl)(naphthalen-1-yl)methanone] | 34% |
| Cc1cc(-c2nc3cc(F)ccc3n2C(=O)c2cccc3ccccc23)no1 [Compound 5c, (5-fluoro-2-(5-methylisoxazol-3-yl)-1H-benzo[d]imidazol-1-yl)(naphthalen-1-yl)methanone] | 54.5% |
| O=C(c1cccc2ccccc12)n1c(-c2cccnc2)nc2cc(Cl)ccc21 [Compound 4a] | 36% |

Target: T2, human recombinant cannabinoid CB2 receptor (Homo sapiens, UniProt P34972)
T2 construct: purchased Perkin Elmer Inc., Singapore Pte; Ltd. RBXCB2M400UA; host or cells: HEK293-EBNA cell membranes (overexpressing)
T2 sequence (P34972 whole entry): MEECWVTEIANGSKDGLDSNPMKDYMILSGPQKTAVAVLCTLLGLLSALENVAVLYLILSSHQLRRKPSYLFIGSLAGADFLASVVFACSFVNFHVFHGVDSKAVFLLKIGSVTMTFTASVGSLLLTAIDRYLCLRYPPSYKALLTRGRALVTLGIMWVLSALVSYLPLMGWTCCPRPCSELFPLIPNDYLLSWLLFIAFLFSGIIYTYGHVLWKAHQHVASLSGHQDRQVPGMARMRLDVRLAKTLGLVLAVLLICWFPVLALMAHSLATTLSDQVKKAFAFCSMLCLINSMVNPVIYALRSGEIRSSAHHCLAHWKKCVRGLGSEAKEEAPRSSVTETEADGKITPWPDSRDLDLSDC
Assay: CB2 radioligand displacement binding assay ([3H]CP-55940)
Details: Cheng–Prusoff from IC50, [3H]CP-55940 0.5 nM, mean ± SEM n = 3

| SMILES | pKi |
| --- | --- |
| Cc1cc(-c2nc3cc(Cl)ccc3n2C(=O)c2cccc3ccccc23)no1 [Compound 4c] | < 5.00 |
| Cc1cc(-c2nc3ccc(F)cc3n2C(=O)c2cccc3ccccc23)no1 [5c′, (6-fluoro-2-(5-methylisoxazol-3-yl)-1H-benzo[d]imidazol-1-yl)(naphthalen-1-yl)methanone] | < 5.00 |
| O=C(c1cccc2ccccc12)n1c(-c2cccnc2)nc2cc(F)ccc21 [Compound 5a] | < 5.00 |
| Cc1ccc(-c2nc3ccc(F)cc3n2C(=O)c2cccc3ccccc23)o1 [5e′, (6-fluoro-2-(5-methylfuran-2-yl)-1H-benzo[d]imidazol-1-yl)(naphthalen-1-yl)methanone] | < 5.00 |
| O=C(c1cccc2ccccc12)n1c(-c2ccco2)nc2cc(Cl)ccc21 [Compound 4f] | < 5.00 |
| Cc1cc(-c2nc3ccc(Cl)cc3n2C(=O)c2cccc3ccccc23)no1 [4c′] | < 5.00 |
| COc1cccc(-c2nc3cc(Cl)ccc3n2C(=O)c2cccc3ccccc23)c1 [Compound 4b] | < 5.00 |
| O=C(c1cccc2ccccc12)n1c(-c2ccon2)nc2ccc(F)cc21 [5d′, (6-fluoro-2-(isoxazol-3-yl)-1H-benzo[d]imidazol-1-yl)(naphthalen-1-yl)methanone] | < 5.00 |
| Cc1cc(-c2nc3cc(F)ccc3n2C(=O)c2cccc3ccccc23)no1 [Compound 5c, (5-fluoro-2-(5-methylisoxazol-3-yl)-1H-benzo[d]imidazol-1-yl)(naphthalen-1-yl)methanone] | < 5.00 |
| O=C(c1cccc2ccccc12)n1c(-c2cccnc2)nc2cc(Cl)ccc21 [Compound 4a] | 5.18 |

Same assay, conditions: [3H]CP-55940 0.5 nM, hCB2 HEK293-EBNA membranes, mean ± SEM n = 3

| SMILES | pIC50 |
| --- | --- |
| Cc1cc(-c2nc3cc(Cl)ccc3n2C(=O)c2cccc3ccccc23)no1 [Compound 4c] | < 5.00 |
| Cc1cc(-c2nc3ccc(F)cc3n2C(=O)c2cccc3ccccc23)no1 [5c′, (6-fluoro-2-(5-methylisoxazol-3-yl)-1H-benzo[d]imidazol-1-yl)(naphthalen-1-yl)methanone] | < 5.00 |
| O=C(c1cccc2ccccc12)n1c(-c2cccnc2)nc2cc(F)ccc21 [Compound 5a] | < 5.00 |
| Cc1ccc(-c2nc3ccc(F)cc3n2C(=O)c2cccc3ccccc23)o1 [5e′, (6-fluoro-2-(5-methylfuran-2-yl)-1H-benzo[d]imidazol-1-yl)(naphthalen-1-yl)methanone] | < 5.00 |
| O=C(c1cccc2ccccc12)n1c(-c2ccco2)nc2cc(Cl)ccc21 [Compound 4f] | < 5.00 |
| Cc1cc(-c2nc3ccc(Cl)cc3n2C(=O)c2cccc3ccccc23)no1 [4c′] | < 5.00 |
| COc1cccc(-c2nc3cc(Cl)ccc3n2C(=O)c2cccc3ccccc23)c1 [Compound 4b] | < 5.00 |
| O=C(c1cccc2ccccc12)n1c(-c2ccon2)nc2ccc(F)cc21 [5d′, (6-fluoro-2-(isoxazol-3-yl)-1H-benzo[d]imidazol-1-yl)(naphthalen-1-yl)methanone] | < 5.00 |
| Cc1cc(-c2nc3cc(F)ccc3n2C(=O)c2cccc3ccccc23)no1 [Compound 5c, (5-fluoro-2-(5-methylisoxazol-3-yl)-1H-benzo[d]imidazol-1-yl)(naphthalen-1-yl)methanone] | < 5.00 |

Same assay, conditions: displacement of [3H]CP-55940 at 10 μM compound; read-out: CB2 Max Tested µM (% Displacement)

| SMILES | inhibition at 10 µM |
| --- | --- |
| Cc1cc(-c2nc3cc(Cl)ccc3n2C(=O)c2cccc3ccccc23)no1 [Compound 4c] | 30% |
| O=C(c1cccc2ccccc12)n1c(-c2cccnc2)nc2ccc(Cl)cc21 [4a′] | 52% |
| Cc1cc(-c2nc3ccc(F)cc3n2C(=O)c2cccc3ccccc23)no1 [5c′, (6-fluoro-2-(5-methylisoxazol-3-yl)-1H-benzo[d]imidazol-1-yl)(naphthalen-1-yl)methanone] | 29% |
| O=C(c1cccc2ccccc12)n1c(-c2cccnc2)nc2cc(F)ccc21 [Compound 5a] | 43% |
| Cc1ccc(-c2nc3ccc(F)cc3n2C(=O)c2cccc3ccccc23)o1 [5e′, (6-fluoro-2-(5-methylfuran-2-yl)-1H-benzo[d]imidazol-1-yl)(naphthalen-1-yl)methanone] | 52% |
| O=C(c1cccc2ccccc12)n1c(-c2ccco2)nc2cc(Cl)ccc21 [Compound 4f] | 46.5% |
| Cc1cc(-c2nc3ccc(Cl)cc3n2C(=O)c2cccc3ccccc23)no1 [4c′] | 29% |
| COc1cccc(-c2nc3cc(Cl)ccc3n2C(=O)c2cccc3ccccc23)c1 [Compound 4b] | 48% |
| O=C(c1cccc2ccccc12)n1c(-c2ccon2)nc2ccc(F)cc21 [5d′, (6-fluoro-2-(isoxazol-3-yl)-1H-benzo[d]imidazol-1-yl)(naphthalen-1-yl)methanone] | 26% |
| Cc1cc(-c2nc3cc(F)ccc3n2C(=O)c2cccc3ccccc23)no1 [Compound 5c, (5-fluoro-2-(5-methylisoxazol-3-yl)-1H-benzo[d]imidazol-1-yl)(naphthalen-1-yl)methanone] | 24% |
| O=C(c1cccc2ccccc12)n1c(-c2cccnc2)nc2cc(Cl)ccc21 [Compound 4a] | 35% |
